Assay results: patent US20260125382A1, “COMPOUNDS FOR INHIBITING OR DEGRADING CDK2 AND/OR CDK9 AND MEDICINAL USE THEREOF” (KOREA RESEARCH INSTITUTE OF CHEMICAL TECHNOLOGY, priority 2022, published 2026)

Columns and labels:
CDK9 = molecular target: T1, CDK9 (Homo sapiens, UniProt P50750); experiment: CDK protein degradation activity (Western blotting), CDK9; type: cell-based; details: MDA-MB-231 cells, 16 hours, Western blot
T1 construct: endogenous in cells; host or cells: MDA-MB-231
Procedure, shortened: (§1)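 Degradation is judged from CDK2 and CDK9 band intensity relative to tubulin and DMSO-treated cells, after 16 h exposure of MDA-MB-231 cells to three compound concentrations (100 nM, 1 μM, 10 μM).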

CDK2 = molecular target: T2, CDK2 (Homo sapiens, UniProt P24941); experiment: CDK protein degradation activity (Western blotting), CDK2; type: cell-based; details: MDA-MB-231 cells, 16 hours, Western blot
T2 construct: endogenous in cells; host or cells: MDA-MB-231
Procedure, shortened: as §1

T1 sequence (P50750 whole entry): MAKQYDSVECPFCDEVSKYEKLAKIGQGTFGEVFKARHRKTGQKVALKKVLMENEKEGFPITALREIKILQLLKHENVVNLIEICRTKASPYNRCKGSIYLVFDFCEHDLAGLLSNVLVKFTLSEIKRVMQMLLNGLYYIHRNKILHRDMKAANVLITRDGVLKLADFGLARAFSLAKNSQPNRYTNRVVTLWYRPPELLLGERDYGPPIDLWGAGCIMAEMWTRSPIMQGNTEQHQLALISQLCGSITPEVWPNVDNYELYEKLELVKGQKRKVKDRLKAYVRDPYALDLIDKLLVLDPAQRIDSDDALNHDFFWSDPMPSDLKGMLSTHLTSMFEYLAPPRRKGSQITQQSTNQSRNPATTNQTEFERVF

Row | Compound | Enzyme degradation CDK9 (% remaining) @ 0.1 μM (CDK9) | Enzyme degradation CDK9 (% remaining) @ 1 μM (CDK9) | Enzyme degradation CDK9 (% remaining) @ 10 μM (CDK9) | Enzyme degradation CDK2 (% remaining) @ 0.1 μM (CDK2) | Enzyme degradation CDK2 (% remaining) @ 1 μM (CDK2) | Enzyme degradation CDK2 (% remaining) @ 10 μM (CDK2)
1 | O=C1CC[C@H](N2C(=O)c3cc(F)c(N4CCC(C(=O)N5CCC(CN6CCN(c7ccc(Nc8ncnc9c8ncn9[C@H]8C[C@@H](NC(=O)c9c(Cl)cccc9Cl)C8)cc7)CC6)CC5)CC4)cc3C2=O)C(=O)N1 [Compound 462, 2,6-dichloro-N-((1s,3s)-3-(6-((4-(4-((1-(1-(2-(2,6-dioxopiperidin-3-yl)-6-fluoro-1,3-dioxoisoindolin-5-yl)piperidin-4-carbonyl)piperidin-4-yl)methyl)piperazin-1-yl)phenyl)amino)-9H-purin-9-yl)cyclobutyl)benzamide] | 0/0/0% | 0/0/0% | 0/0/0% | 30% | 20% | 20%
2 | O=C1CCC(N2C(=O)c3cc(F)c(N4CCC(C(=O)N5CCC(CCN6CCN(c7ccc(Nc8ncnc9c8ncn9[C@H]8C[C@@H](NC(=O)c9c(Cl)cccc9Cl)C8)cc7)CC6)CC5)CC4)cc3C2=O)C(=O)N1 (stereo partly drawn) [Compound 463, 2,6-dichloro-N-((1s,3s)-3-(6-((4-(4-(2-(1-(1-(2-(2,6-dioxopiperidin-3-yl)-6-fluoro-1,3-dioxoisoindolin-5-yl)piperidin-4-carbonyl)piperidin-4-yl)ethyl)piperazin-1-yl)phenyl)amino)-9H-purin-9-yl)cyclobutyl)benzamide] | 0/0/0% | 0/0/0% | 0/0/0% | 30/30/30% | 30/30/30% | 30/30/30%
3 | O=C1CC[C@H](N2C(=O)c3cc(F)c(N4CCC(C(=O)N5CCC6(CC5)CC(N5CCN(c7ccc(Nc8ncnc9c8ncn9C8CC(NC(=O)c9c(Cl)cccc9Cl)C8)cc7)CC5)C6)CC4)cc3C2=O)C(=O)N1 (stereo partly drawn) [Compound 464, 2,6-dichloro-N-((1s,3s)-3-(6-((4-(4-(7-(1-(2-(2,6-dioxopiperidin-3-yl)-6-fluoro-1,3-dioxoisoindolin-5-yl)piperidin-4-carbonyl)-7-azaspiro[3.5]nonan-2-yl)piperazin-1-yl)phenyl)amino)-9H-purin-9-yl)cyclobutyl)benzamide] | 0/0/0% | 0/0/0% | 0/0/0% | 40% | 30% | 30%
4 | Cc1cccc(C(=O)N[C@H]2C[C@@H](n3cnc4c(Nc5ccc(N6CCN(C7CC8(CCN(C(=O)C9CCN(c%10cc%11c(cc%10F)C(=O)N([C@H]%10CCC(=O)NC%10=O)C%11=O)CC9)CC8)C7)CC6)cc5)ncnc43)C2)n1 [Compound 465, N-((1s,3s)-3-(6-((4-(4-(7-(1-(2-(2,6-dioxopiperidin-3-yl)-6-fluoro-1,3-dioxoisoindolin-5-yl)piperidin-4-carbonyl)-7-azaspiro[3.5]nonan-2-yl)piperazin-1-yl)phenyl)amino)-9H-purin-9-yl)cyclobutyl)-6-methylpicolinamide] | 0/0/0% | 0/0/0% | 0/0/0% | 50/50/50% | 50/50/50% | 50/50/50%
5 | O=C1CC[C@H](N2C(=O)c3ccc(N4CC(C(=O)N5CCC(CN6CCN(c7ccc(Nc8ncnc9c8ncn9C8CC(NC(=O)c9cccc(F)n9)C8)cc7)CC6)CC5)C4)cc3C2=O)C(=O)N1 (stereo partly drawn) [Compound 466, N-((1s,3s)-3-(6-((4-(4-((1-(1-(2-(2,6-dioxopiperidin-3-yl)-1,3-dioxoisoindolin-5-yl)azetidin-3-carbonyl)piperidin-4-yl)methyl)piperazin-1-yl)phenyl)amino)-9H-purin-9-yl)cyclobutyl)-6-fluoropicolinamide] | 0/0/0% | 0/0/0% | 0/0/0% | 30% | 20% | 20%
6 | O=C1CC[C@H](N2C(=O)c3ccc(N4CCC(C(=O)N5CCC(CN6CCN(c7ccc(Nc8ncnc9c8ncn9C8CC(NC(=O)c9cccc(F)n9)C8)cc7)CC6)CC5)CC4)cc3C2=O)C(=O)N1 (stereo partly drawn) [Compound 467, N-((1s,3s)-3-(6-((4-(4-((1-(1-(2-(2,6-dioxopiperidin-3-yl)-1,3-dioxoisoindolin-5-yl)piperidin-4-carbonyl)piperidin-4-yl)methyl)piperazin-1-yl)phenyl)amino)-9H-purin-9-yl)cyclobutyl)-6-fluoropicolinamide] | 0/0/0% | 0/0/0% | 0/0/0% | 40% | 30% | 30%
7 | O=C1CC[C@H](N2C(=O)c3cc(F)c(N4CCC(C(=O)N5CCC(CN6CCN(c7ccc(Nc8ncnc9c8ncn9C8CC(NC(=O)c9cccc(F)n9)C8)cc7)CC6)CC5)CC4)cc3C2=O)C(=O)N1 (stereo partly drawn) [Compound 468, N-((1s,3s)-3-(6-((4-(4-((1-(1-(2-(2,6-dioxopiperidin-3-yl)-6-fluoro-1,3-dioxoisoindolin-5-yl)piperidin-4-carbonyl)piperidin-4-yl)methyl)piperazin-1-yl)phenyl)amino)-9H-purin-9-yl)cyclobutyl)-6-fluoropicolinamide] | 0/0/0% | 0/0/0% | 0/0/0% | 50% | 40% | 40%
8 | O=C1CC[C@H](N2C(=O)c3ccc(N4CC(C(=O)N5CCC(CN6CCN(c7ccc(Nc8ncnc9c8ncn9[C@H]8C[C@@H](NC(=O)c9cccc(C(F)(F)F)n9)C8)cc7)CC6)CC5)C4)cc3C2=O)C(=O)N1 [Compound 469, N-((1s,3s)-3-(6-((4-(4-((1-(1-(2-(2,6-dioxopiperidin-3-yl)-1,3-dioxoisoindolin-5-yl)azetidin-3-carbonyl)piperidin-4-yl)methyl)piperazin-1-yl)phenyl)amino)-9H-purin-9-yl)cyclobutyl)-6-(trifluoromethyl)picolinamide] | 0/0/0% | 0/0/0% | 0/0/0% | 40/40/40% | 40/40/40% | 40/40/40%
9 | O=C1CCC(N2C(=O)c3ccc(N4CCC(C(=O)N5CCC(CN6CCN(c7ccc(Nc8ncnc9c8ncn9[C@H]8C[C@@H](NC(=O)c9cccc(C(F)(F)F)n9)C8)cc7)CC6)CC5)CC4)cc3C2=O)C(=O)N1 (stereo partly drawn) [Compound 470, N-((1s,3s)-3-(6-((4-(4-((1-(1-(2-(2,6-dioxopiperidin-3-yl)-1,3-dioxoisoindolin-5-yl)piperidin-4-carbonyl)piperidin-4-yl)methyl)piperazin-1-yl)phenyl)amino)-9H-purin-9-yl)cyclobutyl)-6-(trifluoromethyl)picolinamide] | 0/0/0% | 0/0/0% | 0/0/0% | 30/30/30% | 30/30/30% | 30/30/30%
10 | O=C1CC[C@H](N2C(=O)c3cc(F)c(N4CCC(C(=O)N5CCC(CN6CCN(c7ccc(Nc8ncnc9c8ncn9[C@H]8C[C@@H](NC(=O)c9cccc(C(F)(F)F)n9)C8)cc7)CC6)CC5)CC4)cc3C2=O)C(=O)N1 [Compound 471, N-((1s,3s)-3-(6-((4-(4-((1-(1-(2-(2,6-dioxopiperidin-3-yl)-6-fluoro-1,3-dioxoisoindolin-5-yl)piperidin-4-carbonyl)piperidin-4-yl)methyl)piperazin-1-yl)phenyl)amino)-9H-purin-9-yl)cyclobutyl)-6-(trifluoromethyl)picolinamide] | 0/0/0% | 0/0/0% | 0/0/0% | 50% | 40% | 40%
